For 18 compounds, IC50 results are on record in patent publication US20240246967A1, “AXL COMPOUNDS” (ARCUS BIOSCIENCES, INC., priority 2021, published 2024).

Molecules are shown by their SMILES. pIC50: −log10 of the molar value.

For this assay, the target named is T1, human MER (Homo sapiens, UniProt Q12866).
T1 construct: purchased Invitrogen
T1 sequence (Q12866 21-999): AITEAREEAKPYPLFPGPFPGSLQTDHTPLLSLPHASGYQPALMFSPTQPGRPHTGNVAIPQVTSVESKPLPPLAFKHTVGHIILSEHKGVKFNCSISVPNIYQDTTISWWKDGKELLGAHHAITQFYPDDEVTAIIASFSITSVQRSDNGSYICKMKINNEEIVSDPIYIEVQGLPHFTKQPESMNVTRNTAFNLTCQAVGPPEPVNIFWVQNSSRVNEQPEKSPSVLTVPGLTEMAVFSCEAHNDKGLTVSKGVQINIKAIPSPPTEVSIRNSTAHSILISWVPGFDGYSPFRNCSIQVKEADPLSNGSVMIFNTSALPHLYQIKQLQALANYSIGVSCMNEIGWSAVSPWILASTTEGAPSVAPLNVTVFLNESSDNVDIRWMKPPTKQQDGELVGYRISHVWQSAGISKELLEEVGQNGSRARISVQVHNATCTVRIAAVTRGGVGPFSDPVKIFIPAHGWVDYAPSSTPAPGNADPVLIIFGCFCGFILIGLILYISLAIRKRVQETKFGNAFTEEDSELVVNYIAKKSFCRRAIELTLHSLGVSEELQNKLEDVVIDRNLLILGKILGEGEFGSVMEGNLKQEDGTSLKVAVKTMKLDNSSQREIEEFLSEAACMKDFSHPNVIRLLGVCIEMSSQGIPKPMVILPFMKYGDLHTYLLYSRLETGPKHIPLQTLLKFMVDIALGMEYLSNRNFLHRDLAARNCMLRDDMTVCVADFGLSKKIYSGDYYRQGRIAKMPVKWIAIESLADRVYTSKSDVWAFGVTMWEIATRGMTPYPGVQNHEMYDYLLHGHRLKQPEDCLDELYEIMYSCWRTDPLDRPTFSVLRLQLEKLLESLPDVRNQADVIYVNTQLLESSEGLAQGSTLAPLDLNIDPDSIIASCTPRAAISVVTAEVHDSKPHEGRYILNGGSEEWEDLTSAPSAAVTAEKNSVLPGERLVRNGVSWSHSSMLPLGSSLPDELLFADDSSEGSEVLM
In words: HTRF KinEASE-TK biochemical potency assay, MER. The note with it: 1 nM MER, 700 μM ATP, 800 nM TK Substrate-biotin. As to the method:
Purified recombinant human AXL, TYRO3 and MER proteins were purchased from Invitrogen™. 10 nM AXL, 2 nM TYRO3 or MER were incubated with varying concentrations of compounds in 50 mM HEPES, pH 7.4, 10 mM MgCl2, 0.01% BSA, 1 mM DTT and 2% DMSO in a total volume of 20 μl in a 384-well microplate (Corning™ #3640) at RT for 1 h. The AXL, TYRO3 and MER enzymatic reaction was initiated by transferring 10 μl of enzyme and compound mixture into 10 μl of 1.6 μM TK Substrate-biotin (HTRF® KinEASE-TK kit, Cisbio) and 1400 μM ATP pre-incubated in 50 mM HEPES, pH 7.4, 10 mM MgCl2, 0.01% BSA, 1 mM DTT in a 384-well microplate (Corning™ #3640) at RT, giving the final reaction conditions: 5 nM AXL, 1 nM TYRO3 or MER, 800 nM TK Substrate-biotin and 700 μM ATP in 50 mM HEPES, pH 7.4, 10 mM MgCl2, 0.01% BSA, 1 mM DTT and 1% DMSO with varying concentrations of compounds. Following 2 h incubation at RT, the AXL, TYRO3 and MER enzymatic reaction was stopped by transfer of 10 μl of reaction into 10 μl of detection mix (400 nM Streptavidin-XL665, 200-fold dilution TK Antibody-Cryptate and detection buffer, HTRF® KinEASE-TK kit, Cisbio) in a white 384-well microplate (Perkin Elmer, OptiPlate 384). After 1 h incubation at RT, the plate was put into a plate reader (Evision) to read at 665/620 nm (acceptor/donor) for HTRF. The value of the DMSO blank (MIN inhibition=100% activity) was used as a negative control. The positive control was established by adding 5 μl of enzyme and DMSO mixture into 10 μl of detection mix followed by addition of 5 μl of TK Substrate-biotin and ATP mixture (MAX inhibition=0% activity). To calculate the percent activity, Equation 1 was used. Ratio 665/620 is the value at a given compound concentration: […]
On the technique in general: Time-resolved FRET reads energy transfer from a long-lived donor to a nearby acceptor.
As usually defined, the pIC50 is −log10 of the IC50, conventionally taken in molar units. A high value points to a low IC50. In turn, `O=C([C@@H]1CCCN1)N1CCc2ccc(-c3cnc4[nH]nc(-c5ccc(S(=O)(=O)C6CC6)cc5)c4c3)cc2CC1` [Example 112, 7-{3-[4-(Cyclopropanesulfonyl)phenyl]-1H-pyrazolo[3,4-b]pyridin-5-yl}-3-[(2S)-pyrrolidine-2-carbonyl]-2,3,4,5-tetrahydro-1H-3-benzazepine] showed a pIC50 of less than 6.00.
In the case of `C[C@@H]1CCCN1C1(C)CCc2ccc(-c3cnc4[nH]nc(-c5ccc(S(=O)(=O)C6CC6)c(F)c5)c4c3)cc2CC1` (stereo partly drawn) [Example 25, (2R)-1-(2-{3-[4-(Cyclopropanesulfonyl)-3-fluorophenyl]-1H-pyrazolo[3,4-b]pyridin-5-yl}-7-methyl-6,7,8,9-tetrahydro-5H-benzo[7]annulen-7-yl)-2-methylpyrrolidine], the pIC50 was 6.00 to 7.00.
The figure for `CC(C)S(=O)(=O)c1ccc(-c2n[nH]c3ncc(-c4ccc5c(c4)CC[C@@H](N4CCCC4)CC5)cc23)cc1` [Example 42, (S)-3-(4-(Isopropylsulfonyl)phenyl)-5-(7-(pyrrolidin-1-yl)-6,7,8,9-tetrahydro-5H-benzo[7]annulen-2-yl)-1H-pyrazolo[3,4-b]pyridine] is 6.00 to 7.00.
Consider `C[C@@H]1CCCN1C1CCc2ccc(-c3cnc4[nH]nc(-c5ccc(S(N)(=O)=O)c(Cl)c5)c4c3)cc2CC1` (stereo partly drawn) [Example 94, 2-Chloro-4-(5-(7-((R)-2-methylpyrrolidin-1-yl)-6,7,8,9-tetrahydro-5H-benzo[7]annulen-2-yl)-1H-pyrazolo[3,4-b]pyridin-3-yl)benzenesulfonamide], for which the pIC50 was 6.00 to 7.00.
Compound `C[C@@H]1CCCN1C1(C)CCc2ccc(-c3cnc4[nH]nc(-c5ccc(S(=O)(=O)C6CCCC6)cc5)c4c3)cc2CC1` (stereo partly drawn) [Example 45, 3-(4-(Cyclopentylsulfonyl)phenyl)-5-(7-methyl-7-((R)-2-methylpyrrolidin-1-yl)-6,7,8,9-tetrahydro-5H-benzo[7]annulen-2-yl)-1H-pyrazolo[3,4-b]pyridine] gave a pIC50 of less than 6.00.
Under `CC1(N[C@H]2CCOC2)CCc2ccc(-c3cnc4[nH]nc(-c5ccc(S(=O)(=O)C6CC6)cc5)c4c3)cc2CC1` (stereo partly drawn) [Example 115, (3S)-N-(2-{3-[4-(Cyclopropanesulfonyl)phenyl]-1H-pyrazolo[3,4-b]pyridin-5-yl}-7-methyl-6,7,8,9-tetrahydro-5H-benzo[7]annulen-7-yl)oxolan-3-amine] stands 6.00 to 7.00; under `Cc1cc(-c2n[nH]c3ncc(-c4ccc5c(c4)CC[C@@H](N4CCCC4)CC5)cc23)cc(C)c1C(N)=O` [Example 49, 2,6-Dimethyl-4-{5-[(7S)-7-(pyrrolidin-1-yl)-6,7,8,9-tetrahydro-5H-benzo[7]annulen-2-yl]-1H-pyrazolo[3,4-b]pyridin-3-yl}benzamide], 6.00 to 7.00.
Under `c1cc2c(cc1-c1cnc3[nH]nc(-c4ccc(N5C[C@H]6C[C@@H]5CO6)cc4)c3c1)CC[C@@H](N1C3COCC1C3)CC2` [Example 126, (1R,4R)-5-(4-{5-[(7S)-7-{3-oxa-6-azabicyclo[3.1.1]heptan-6-yl}-6,7,8,9-tetrahydro-5H-benzo[7]annulen-2-yl]-2H-pyrazolo[3,4-b]pyridin-3-yl}phenyl)-2-oxa-5-azabicyclo[2.2.1]heptane] stands less than 6.00.
On to `C[C@@H]1CCCN1C1(C)CCc2ccc(-c3cnc4[nH]nc(-c5ccc(C(=O)N6CCCC6)cc5)c4c3)cc2CC1` (stereo partly drawn) [Example 118, (2R)-2-Methyl-1-(7-methyl-2-{3-[4-(pyrrolidine-1-carbonyl)phenyl]-1H-pyrazolo[3,4-b]pyridin-5-yl}-6,7,8,9-tetrahydro-5H-benzo[7]annulen-7-yl)pyrrolidine], for which the pIC50 was less than 6.00.
Under `CCS(=O)(=O)c1ccc(-c2n[nH]c3ncc(-c4ccc5c(c4)CC[C@@H](N4CCCC4)CC5)cc23)cc1` [Example 41, (S)-3-(4-(Ethylsulfonyl)phenyl)-5-(7-(pyrrolidin-1-yl)-6,7,8,9-tetrahydro-5H-benzo[7]annulen-2-yl)-1H-pyrazolo[3,4-b]pyridine] stands 6.00 to 7.00.
Consider `CS(=O)(=O)c1ccc(-c2n[nH]c3ncc(-c4ccc5c(c4)CCN(C4CCCC4)CC5)cc23)cc1` [Example 30, 3-Cyclopentyl-7-(3-(4-(methylsulfonyl)phenyl)-1H-pyrazolo[3,4-b]pyridin-5-yl)-2,3,4,5-tetrahydro-1H-benzo[d]azepine], for which the pIC50 was 6.00 to 7.00.
The figure for `Cc1cc(-c2n[nH]c3ncc(-c4ccc5c(c4)CC[C@@H](N4CCCC4)CC5)cc23)cc(C)c1C(=O)N1CCNCC1` [Example 55, 1-(2,6-Dimethyl-4-{5-[(7S)-7-(pyrrolidin-1-yl)-6,7,8,9-tetrahydro-5H-benzo[7]annulen-2-yl]-1H-pyrazolo[3,4-b]pyridin-3-yl}benzoyl)piperazine] is 6.00 to 7.00.
Under `C[C@@H]1CCCN1C1CCc2ccc(-c3cnc4[nH]nc(-c5ccc(S(=O)(=O)C6CC6)cc5)c4c3)cc2C(C)(C)C1` (stereo partly drawn) [Example 109, (2R)-1-(2-{3-[4-(Cyclopropanesulfonyl)phenyl]-1H-pyrazolo[3,4-b]pyridin-5-yl}-9,9-dimethyl-6,7,8,9-tetrahydro-5H-benzo[7]annulen-7-yl)-2-methylpyrrolidine] stands less than 6.00.
The figure for `C[C@@H]1CCCN1C1(C)CCc2ccc(-c3cnc4[nH]cc(-c5ccc(S(=O)(=O)C6CC6)cc5)c4c3)cc2CC1` (stereo partly drawn) [Example 105, (2R)-1-(2-{3-[4-(Cyclopropanesulfonyl)phenyl]-1H-pyrrolo[2,3-b]pyridin-5-yl}-7-methyl-6,7,8,9-tetrahydro-5H-benzo[7]annulen-7-yl)-2-methylpyrrolidine] is less than 6.00; for `COc1cc(-c2n[nH]c3ncc(-c4ccc5c(c4)CCC(C)(N4CCC[C@H]4C)CC5)cc23)ccc1C(N)=O` (stereo partly drawn) [Example 53, 2-Methoxy-4-(5-(7-methyl-7-((R)-2-methylpyrrolidin-1-yl)-6,7,8,9-tetrahydro-5H-benzo[7]annulen-2-yl)-1H-pyrazolo[3,4-b]pyridin-3-yl)benzamide] it is 6.00 to 7.00; for `O=C1OCCN1c1ccc(-c2n[nH]c3ncc(-c4ccc5c(c4)CC[C@@H](N4C6COCC4C6)CC5)cc23)cc1` [Example 121, 3-(4-{5-[(7S)-7-{3-oxa-6-azabicyclo[3.1.1]heptan-6-yl}-6,7,8,9-tetrahydro-5H-benzo[7]annulen-2-yl]-2H-pyrazolo[3,4-b]pyridin-3-yl}phenyl)-1,3-oxazolidin-2-one] it is less than 6.00.
In the case of `CCS(=N)(=O)c1ccc(-c2n[nH]c3ncc(-c4ccc5c(c4)CCC(C)(N4CCC[C@H]4C)CC5)cc23)cc1` (stereo partly drawn) [Example 100, Ethyl(imino)[4-(5-{7-methyl-7-[(2R)-2-methylpyrrolidin-1-yl]-6,7,8,9-tetrahydro-5H-benzo[7]annulen-2-yl}-1H-pyrazolo[3,4-b]pyridin-3-yl)phenyl]-λ^6-sulfanone], the pIC50 is 6.00 to 7.00.
Under `Cc1cc(-c2n[nH]c3ncc(-c4ccc5c(c4)CC[C@@H](N4CCCC4)CC5)cc23)cc(Cl)c1C(=O)N1CCNCC1` [Example 56, 1-(2-Chloro-6-methyl-4-{5-[(7S)-7-(pyrrolidin-1-yl)-6,7,8,9-tetrahydro-5H-benzo[7]annulen-2-yl]-1H-pyrazolo[3,4-b]pyridin-3-yl}benzoyl)piperazine] stands greater than 7.00.
